# Experiments:
# Format in all cases: biochemical
# Settings in all cases: Table 8
# Porcine Atria myofibrils = assay: Myofibril ATPase assay (PK/LDH NADH-coupled), atria myofibrils
# Outline: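 Porcine atrial myofibril ATPase followed via PK/LDH-coupled NADH depletion, absorbance at 340 nm read every 1.5-2 min over 75 min. Slopes (mAU/min) normalized to vehicle as 100% and fit to a 4-parameter logistic; EC25% derived, plus EC50% for inhibitors.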
# [1] = target: T1, Porcine Ventricle myofibrils (left ventricle of Yucatan minipigs) (Sus scrofa, UniProt P79293); assay: Myofibril ATPase assay (PK/LDH NADH-coupled), ventricle myofibrils
# T1 construct: Myofibrils from porcine cardiac muscle was isolated from the left ventricle of Yucatan minipigs; tissue Exemplar Genetics; host or cells: left ventricle of Yucatan minipigs
# Outline: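 Yucatan minipig left-ventricle myofibrils; ATPase measured by PK/LDH-coupled NADH loss at 340 nm, read every 1.5-2 min for 75 min. Slopes normalized to vehicle (100%) and fit to 4-parameter logistic model; EC25 and, for inhibitors, EC50 calculated.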
# [2] = tested on: Rabbit Skeletal myofibrils (rabbit psoas muscle); assay: Myofibril ATPase assay (PK/LDH NADH-coupled), skeletal myofibrils
# Outline: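 Rabbit psoas myofibrils in pCa (PIPES/CaCl2/EGTA, pH 7.0) buffer; ADP coupled via PK/LDH to NADH loss, read at 340 nm every 1.5–2 min for 75 min. Slopes normalized to vehicle (100%) and fit to 4-parameter logistic for EC25, plus EC50 for inhibitors.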
# T1 sequence (P79293 whole entry): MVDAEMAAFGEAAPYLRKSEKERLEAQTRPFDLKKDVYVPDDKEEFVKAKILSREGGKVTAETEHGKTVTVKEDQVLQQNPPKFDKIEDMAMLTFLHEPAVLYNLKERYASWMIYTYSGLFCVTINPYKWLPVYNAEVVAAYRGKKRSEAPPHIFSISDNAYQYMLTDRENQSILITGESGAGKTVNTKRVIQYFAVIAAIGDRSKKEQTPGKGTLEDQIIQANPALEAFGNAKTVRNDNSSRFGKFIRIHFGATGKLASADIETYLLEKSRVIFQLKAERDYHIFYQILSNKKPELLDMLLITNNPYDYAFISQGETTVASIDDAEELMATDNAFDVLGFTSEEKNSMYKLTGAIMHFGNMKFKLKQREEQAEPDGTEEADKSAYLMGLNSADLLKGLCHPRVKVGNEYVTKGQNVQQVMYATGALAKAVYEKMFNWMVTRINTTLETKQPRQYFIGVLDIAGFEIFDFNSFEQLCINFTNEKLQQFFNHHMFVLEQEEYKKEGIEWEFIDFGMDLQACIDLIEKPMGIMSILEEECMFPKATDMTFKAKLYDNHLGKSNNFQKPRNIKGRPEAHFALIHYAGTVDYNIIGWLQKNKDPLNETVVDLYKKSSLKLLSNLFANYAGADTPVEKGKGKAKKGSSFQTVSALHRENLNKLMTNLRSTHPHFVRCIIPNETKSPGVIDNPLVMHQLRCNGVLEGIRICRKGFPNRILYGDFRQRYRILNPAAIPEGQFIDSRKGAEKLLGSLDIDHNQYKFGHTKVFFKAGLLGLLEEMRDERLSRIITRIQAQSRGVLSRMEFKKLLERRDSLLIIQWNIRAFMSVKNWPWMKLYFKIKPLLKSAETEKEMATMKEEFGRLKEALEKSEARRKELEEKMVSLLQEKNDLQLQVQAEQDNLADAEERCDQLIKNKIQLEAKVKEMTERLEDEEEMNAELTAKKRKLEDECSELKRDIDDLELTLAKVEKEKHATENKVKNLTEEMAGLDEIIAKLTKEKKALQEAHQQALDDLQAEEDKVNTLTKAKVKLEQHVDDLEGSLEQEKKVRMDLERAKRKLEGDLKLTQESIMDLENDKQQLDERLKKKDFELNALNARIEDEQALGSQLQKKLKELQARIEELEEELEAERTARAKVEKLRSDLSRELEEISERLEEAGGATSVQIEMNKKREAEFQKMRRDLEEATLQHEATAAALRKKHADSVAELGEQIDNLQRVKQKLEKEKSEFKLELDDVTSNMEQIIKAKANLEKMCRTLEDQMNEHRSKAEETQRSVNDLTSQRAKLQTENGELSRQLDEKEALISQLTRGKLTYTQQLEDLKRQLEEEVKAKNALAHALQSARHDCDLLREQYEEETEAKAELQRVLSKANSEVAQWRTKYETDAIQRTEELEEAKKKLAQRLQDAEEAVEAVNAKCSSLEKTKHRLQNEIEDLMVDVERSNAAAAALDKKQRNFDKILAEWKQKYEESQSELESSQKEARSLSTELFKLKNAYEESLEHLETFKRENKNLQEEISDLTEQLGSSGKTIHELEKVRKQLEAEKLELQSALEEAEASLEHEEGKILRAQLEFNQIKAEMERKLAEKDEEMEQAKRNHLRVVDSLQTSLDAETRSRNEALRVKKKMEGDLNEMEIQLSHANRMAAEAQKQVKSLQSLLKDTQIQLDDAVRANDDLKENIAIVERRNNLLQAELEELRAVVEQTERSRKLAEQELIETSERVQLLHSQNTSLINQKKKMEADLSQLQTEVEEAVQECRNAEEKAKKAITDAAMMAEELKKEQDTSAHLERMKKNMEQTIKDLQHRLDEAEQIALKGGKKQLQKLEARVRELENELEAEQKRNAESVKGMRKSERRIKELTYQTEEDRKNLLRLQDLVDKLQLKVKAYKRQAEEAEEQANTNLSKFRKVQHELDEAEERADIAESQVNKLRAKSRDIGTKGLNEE
SMILES,Porcine Atria IC25 (Porcine Atria myofibrils) [µM],Porcine Ventricle IC25 [1] [µM],Rabbit Psoas IC25 [2] [µM]
C[C@H](NC(=O)CN1Cc2c(F)cccc2NC1=O)c1ccc(C#N)cc1F [Compound B114],0.12,0.1673,0.0208
C[C@@H](NC(=O)CN1Cc2c(C#N)cccc2NC1=O)c1ccc(C#N)cn1 [Compound B115],100.00,100,100
"C[C@H](NC(=O)CN1Cc2c(C#N)cccc2NC1=O)c1ccc(C#N)cn1 [Compound B116, 2-(5-Cyano-2-oxo-1,4-dihydroquinazolin-3-yl)-N-[(1S)-1-(5-cyanopyridin-2-yl)ethyl]acetamide]",0.22,0.6721,0.0743
N#Cc1cc(F)c2c(c1)OC[C@H]2NC(=O)CN1Cc2c(ccc(F)c2C#N)NC1=O [Compound B117],0.15,1.967,0.2366
N#Cc1cc(F)c2c(c1)OC[C@@H]2NC(=O)CN1Cc2c(ccc(F)c2C#N)NC1=O [Compound B118],0.07,0.11,0.0136
N#Cc1ccc2c(c1)C1(CC1)N(CC(=O)N[C@@H]1COc3cc(F)cc(F)c31)C(=O)N2 [Compound B121],0.12,0.1665,0.0677
N#Cc1ccc2c(c1)C1(CC1)N(CC(=O)N[C@H]1COc3cc(F)cc(F)c31)C(=O)N2 [Compound B122],1.31,100,100
N#Cc1cc(F)c2c(c1)OC[C@@H]2NC(=O)CN1Cc2c(ccc(F)c2F)NC1=O [Compound B124],0.36,1.87,0.3262
C[C@@H](NC(=O)CN1Cc2c(C#N)cccc2NC1=O)c1ncc(C#N)cc1F [Compound B125],1.62,100,1.552
C[C@H](NC(=O)CN1Cc2c(C#N)cccc2NC1=O)c1ncc(C#N)cc1F [Compound B126],0.07,0.3461,0.04006
C[C@@H](NC(=O)CN1Cc2c(ccc(C#N)c2F)NC1=O)c1ccc(C#N)cc1F [Compound B129],0.26,100,3.992
C[C@@H](NC(=O)CN1Cc2c(ccc(F)c2C#N)NC1=O)c1ncc(C#N)cc1F [Compound B131],100.00,100,0.3456
C[C@H](NC(=O)CN1Cc2c(ccc(F)c2C#N)NC1=O)c1ncc(C#N)cc1F [Compound B132],0.08,0.1715,0.0313
C[C@@H](NC(=O)CN1Cc2c(ccc(F)c2F)NC1=O)c1ccc(C#N)cn1 [Compound B135],0.51,15.88,1.618
C[C@H](NC(=O)CN1Cc2c(ccc(F)c2F)NC1=O)c1ccc(C#N)cn1 [Compound B136],0.42,0.764,0.0645
C[C@@H](NC(=O)CN1C(=O)Nc2ccc(F)cc2C12CC2)c1ccc(C#N)cn1 [Compound B137],0.12,0.6995,0.1155

SMILES,Porcine Atria IC25 (Porcine Atria myofibrils) [µM],Porcine Ventricle IC25 [1] [µM],Rabbit Psoas IC25 [2] [µM]
C[C@H](NC(=O)CN1C(=O)Nc2ccc(F)cc2C12CC2)c1ccc(C#N)cn1 [Compound B138],1.53,100,100
N#Cc1c(F)ccc2c1CN(CC(=O)N[C@@H]1COc3cc(F)cc(F)c31)C(=O)N2 [Compound B139],0.05,0.1215,0.01393
N#Cc1c(F)ccc2c1CN(CC(=O)N[C@H]1COc3cc(F)cc(F)c31)C(=O)N2 [Compound B140],1.10,55.23,1.501
C[C@@H](NC(=O)CN1Cc2cc(C#N)ccc2NC1=O)c1ncc(C#N)cc1F [Compound B143],100.00,100,100
"C[C@H](NC(=O)CN1Cc2cc(C#N)ccc2NC1=O)c1ncc(C#N)cc1F [Compound B144, 2-(6-cyano-2-oxo-1,4-dihydroquinazolin-3-yl)-N-[(1S)-1-(5-cyano-3-fluoropyridin-2-yl)ethyl]acetamide]",0.72,47.42,2.787
O=C(CN1Cc2cc(F)ccc2NC1=O)N[C@H]1COc2cc(F)cc(F)c21 [Compound B146],1.52,68.33,5.163
O=C(CN1Cc2c(ccc(F)c2F)NC1=O)N[C@H]1COc2cc(F)cc(F)c21 [Compound B148],0.85,5.833,0.4985
C[C@@H](NC(=O)CN1C(=O)Nc2ccc(C#N)cc2C12CC2)c1ncc(F)cc1F [Compound B149],73.55,100,0.1803
C[C@H](NC(=O)CN1C(=O)Nc2ccc(C#N)cc2C12CC2)c1ncc(F)cc1F [Compound B150],0.98,22.65,100
C[C@@H](NC(=O)CN1Cc2c(C#N)cccc2NC1=O)c1ncc(F)cc1F [Compound B153],16.33,100,0.5161
C[C@H](NC(=O)CN1Cc2c(C#N)cccc2NC1=O)c1ncc(F)cc1F [Compound B154],0.18,2.518,0.0315
C[C@H](NC(=O)CN1C(=O)Nc2ccccc2[C@H]1C)c1ccc(F)cc1F [Compound B155],0.43,3.17,0.0851
C[C@H](NC(=O)CN1C(=O)Nc2ccccc2[C@H]1C)c1ccc(F)cc1F [Compound B156],4.12,10.58,0.232
CC(NC(=O)CN1Cc2cc(C#N)ccc2NC1=O)c1ncc(C#N)cc1F (stereo not drawn) [Compound B157],5.96,100,100
C[C@@H]1c2ccccc2NC(=O)N1CC(=O)N[C@H](C)c1ncc(F)cc1F [Compound B158],100.00,100,18.11
C[C@@H](NC(=O)CN1C(=O)Nc2ccccc2[C@@H]1C)c1ncc(F)cc1F [Compound B159],100.00,100,100

# — patent US12509431B2, “1,4-dihydroquinazolinone compounds and uses thereof” (Edgewise Therapeutics, Inc., priority 2022, dated 2025)
